# Laboratory results from publication PMC10310851 (Signal Transduction and Targeted Therapy, 2023).
# Where two headings read alike, the source gives them in different places.
# Assays:
# [1] = tested on: ROS1 fusion-positive NSCLC; details: cited from earlier work
# [2] = tested on: Gastric cancer cell SNU-5; experiment: Growth inhibition of cancer cell lines: SNU-5; type: cell-based; details: Homo sapiens
# [3] = tested on: Lung cancer cell NCI-H3122; experiment: Growth inhibition of cancer cell lines: NCI-H3122; type: cell-based; details: Homo sapiens
# [4] = design: method as in PMID 25264305; details: cited from earlier work
# ROS1-rearranged NSCLC [5] = tested on: ROS1-rearranged NSCLC; design: method as in PMID 34511132; details: first-line, cited from earlier work
# [6] = tested on: ROS1-positive advanced NSCLC; design: method as in PMID 29596029; details: cited from earlier work
# [7] = design: method as in PMID 31751012; details: cited from earlier work
# ROS1-rearranged NSCLC [8] = tested on: ROS1-rearranged NSCLC; design: method as in PMID 31416808; details: 2/6, METROS trial ref 13; cited from earlier work
# [9] = tested on: Lung cancer cell NCI-H2228; experiment: Growth inhibition of cancer cell lines: NCI-H2228; type: cell-based; details: Homo sapiens
# [10] = tested on: NSCLC with ROS1 rearrangements; design: method as in PMID 28520527; details: cited from earlier work
# [11] = no radiotherapy within the preceding 6 months ref 21
# [12] = radiotherapy within the preceding 6 months ref 21
smiles,measurement,setting,value
CN1CCN(c2ccc(C(=O)Nc3n[nH]c4ccc(Cc5cc(F)cc(F)c5)cc34)c(NC3CCOCC3)c2)CC1 [entrectinib],DCR,[1],75.8%
same,Intracranial ORR,[1],79.2%
same,Median PFS,[1],15.7 months
same,Median intracranial PFS,[1]; measurable central nervous system lesions at baseline ref 21,12.0 months
same,Intracranial ORR,[1]; [11],46.2%
same,Intracranial PFS,[1]; [11],8.8 months
same,ORR,[1]; overall patient population ref 21,67.1%
same,ORR,[1]; patients who had brain metastases at baseline ref 21,62.5%
same,ORR,[1]; patients with CD74-ROS1 fusions ref 21,72.9%
same,Intracranial ORR,[1]; [12],60%
same,Intracranial PFS,[1]; [12],16.1 months
C[C@@H](Oc1cc(-c2cnn(C3CCNCC3)c2)cnc1N)c1c(Cl)ccc(F)c1Cl [crizotinib],IC50,[2],29.1 nM
same,IC50,[3],214 nM
same,Dizziness,[4],16%
same,Dysgeusia,[4],18%
same,Ophthalmological AEs,[4],82%
same,Reduced neutrophil count,[4],12%
same,Median PFS,ROS1-rearranged NSCLC [5]; non-CD74-ROS1 fusions ref 27,21.0 months
same,Median PFS,ROS1-rearranged NSCLC [5]; tumor harboring CD74-ROS1 ref 27,17.0 months
same,ORR by IRC,[6]; OO 12-01 study ref 15,71.7%
same,DCR,[6],88.2%
same,Median PFS,[6],15.9 months
same,Rate of drug dose interruptions due to TRAEs,[6],22.8%
same,Any grade elevated ALT,[7],14%
same,Any grade elevated AST,[7],22%
same,Grade III or higher elevated ALT,[7],4%
same,Grade III or higher elevated AST,[7],2%
same,Intracranial ORR,ROS1-rearranged NSCLC [8],33%
same,IC50,[9],358 nM
Cc1cc(Nc2ncc(Cl)c(Nc3ccccc3S(=O)(=O)C(C)C)n2)c(OC(C)C)cc1C1CCNCC1 [ceritinib],Intracranial ORR,[10],29%
